Assay results published in the supplement of paper PMC10307832.

Columns and labels:
Assay in all cases: relative viability (nuclei count vs DMSO), 5 days (fraction); higher = more cells survive
[1] = compound: C[C@@]1(C(=O)Nc2ccc(F)nc2)CCCN1c1nc(Nc2cc(C3CC3)n[nH]2)c2cccn2n1 + NC(=O)Nc1cc(-c2cccc(F)c2)sc1C(=O)N[C@H]1CCCNC1 [AZD7762] (partner 0.2 µM)
In short: (§1)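 One day after seeding in 1536-well plates, lung cancer cell lines were dosed by pin tool. Dosing was either single-drug or a fixed anchor-drug dose plus five library-drug doses (not always all listed) in √10 steps. After 5 days, nuclei were stained in one fix-and-stain step and counted on 4× images, and relative viability is the nuclei count of treated wells over that of vehicle wells, given as the median of duplicate plates.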

[2] = compound: CC1(C)CNc2cc(NC(=O)c3cccnc3NCc3ccncc3)ccc21 [Motesanib] + C[C@@H](Oc1cc(-c2cnn(C3CCNCC3)c2)cnc1N)c1c(Cl)ccc(F)c1Cl [Crizotinib] (partner 1 µM)
In short: as §1

[3] = compound: CC1(C)CNc2cc(NC(=O)c3cccnc3NCc3ccncc3)ccc21 [Motesanib] + CC(C)C[C@H](NC(=O)[C@H](Cc1ccccc1)NC(=O)c1cnccn1)B(O)O [Bortezomib] (partner 0.002 µM)
In short: as §1

[4] = compound: C[C@@]1(C(=O)Nc2ccc(F)nc2)CCCN1c1nc(Nc2cc(C3CC3)n[nH]2)c2cccn2n1 + CC(C)C[C@H](NC(=O)[C@H](Cc1ccccc1)NC(=O)c1cnccn1)B(O)O [Bortezomib] (partner 0.002 µM)
In short: as §1

For NCI-H1648, the relative viability ([1]; first compound 0.04 µM) was 0.671, the relative viability ([1]; first compound 0.1265 µM) was 0.608 and the relative viability ([1]; first compound 0.4 µM) was 0.586. The relative viability ([1]; first compound 1.265 µM) was 0.676.

For SK-MES-1, the relative viability ([2]; first compound 0.01 µM) was 0.983, the relative viability ([2]; first compound 0.03162 µM) was 0.986 and the relative viability ([2]; first compound 0.1 µM) was 1.01. For the same cell line, the relative viability ([2]; first compound 0.3162 µM) was 1.05 and the relative viability ([2]; first compound 1 µM) was 0.977.

With HCC-366 the relative viability ([3]; first compound 0.01 µM) was 1.06, the relative viability ([3]; first compound 0.03162 µM) was 1 and the relative viability ([3]; first compound 0.1 µM) was 1.06. The relative viability ([3]; first compound 0.3162 µM) was 0.997, the relative viability ([3]; first compound 1 µM) was 1.09 and the relative viability ([2]; first compound 0.01 µM) was 0.575. The relative viability ([2]; first compound 0.03162 µM) was 0.487, the relative viability ([2]; first compound 0.1 µM) was 0.605 and the relative viability ([2]; first compound 0.3162 µM) was 0.556. It also gave a relative viability ([2]; first compound 1 µM) of 0.596, a relative viability ([4]; first compound 0.04 µM) of 1.06 and a relative viability ([4]; first compound 0.1265 µM) of 1.04. It also gave a relative viability ([4]; first compound 0.4 µM) of 1, a relative viability ([4]; first compound 1.265 µM) of 0.802 and a relative viability ([1]; first compound 0.04 µM) of 0.356. The relative viability ([1]; first compound 0.1265 µM) was 0.31, the relative viability ([1]; first compound 0.4 µM) was 0.293 and the relative viability ([1]; first compound 1.265 µM) was 0.152.

201T showed a relative viability ([3]; first compound 0.01 µM) of 1.05, a relative viability ([3]; first compound 0.03162 µM) of 1.07 and a relative viability ([3]; first compound 0.1 µM) of 1.08. For the same cell line, the relative viability ([3]; first compound 0.3162 µM) was 1.17, the relative viability ([3]; first compound 1 µM) was 1.08 and the relative viability ([2]; first compound 0.01 µM) was 1.02. It also gave a relative viability ([2]; first compound 0.03162 µM) of 1.07, a relative viability ([2]; first compound 0.1 µM) of 1.04 and a relative viability ([2]; first compound 0.3162 µM) of 1.04. The relative viability ([2]; first compound 1 µM) was 1.06, the relative viability ([4]; first compound 0.04 µM) was 1.1 and the relative viability ([4]; first compound 0.1265 µM) was 0.958. It also gave a relative viability ([4]; first compound 0.4 µM) of 1.01, a relative viability ([4]; first compound 1.265 µM) of 0.957 and a relative viability ([1]; first compound 0.04 µM) of 0.623. For the same cell line, the relative viability ([1]; first compound 0.1265 µM) was 0.575, the relative viability ([1]; first compound 0.4 µM) was 0.473 and the relative viability ([1]; first compound 1.265 µM) was 0.597.

Cell Line HCC-827 has a relative viability ([3]; first compound 0.01 µM) of 0.962, a relative viability ([3]; first compound 0.03162 µM) of 1.1 and a relative viability ([3]; first compound 0.1 µM) of 1.07. For the same cell line, the relative viability ([3]; first compound 0.3162 µM) was 1.03, the relative viability ([3]; first compound 1 µM) was 1.15 and the relative viability ([2]; first compound 0.01 µM) was 0.99. The relative viability ([2]; first compound 0.03162 µM) was 0.985, the relative viability ([2]; first compound 0.1 µM) was 0.998 and the relative viability ([2]; first compound 0.3162 µM) was 0.955. The relative viability ([2]; first compound 1 µM) was 0.93, the relative viability ([4]; first compound 0.04 µM) was 1.07 and the relative viability ([4]; first compound 0.1265 µM) was 1.03. The relative viability ([4]; first compound 0.4 µM) was 0.971, the relative viability ([4]; first compound 1.265 µM) was 0.926 and the relative viability ([1]; first compound 0.04 µM) was 0.273. For the same cell line, the relative viability ([1]; first compound 0.1265 µM) was 0.19, the relative viability ([1]; first compound 0.4 µM) was 0.241 and the relative viability ([1]; first compound 1.265 µM) was 0.191.

In the case of NCI-H647, the relative viability ([3]; first compound 0.01 µM) was 0.984, the relative viability ([3]; first compound 0.03162 µM) was 1.01 and the relative viability ([3]; first compound 0.1 µM) was 0.974. For the same cell line, the relative viability ([3]; first compound 0.3162 µM) was 1.06, the relative viability ([3]; first compound 1 µM) was 0.883 and the relative viability ([2]; first compound 0.01 µM) was 1. For the same cell line, the relative viability ([2]; first compound 0.03162 µM) was 1.06, the relative viability ([2]; first compound 0.1 µM) was 1.2 and the relative viability ([2]; first compound 0.3162 µM) was 1.19. For the same cell line, the relative viability ([2]; first compound 1 µM) was 0.964, the relative viability ([4]; first compound 0.04 µM) was 1.15 and the relative viability ([4]; first compound 0.1265 µM) was 0.9. It also gave a relative viability ([4]; first compound 0.4 µM) of 0.706, a relative viability ([4]; first compound 1.265 µM) of 0.791 and a relative viability ([1]; first compound 0.04 µM) of 0.402. The relative viability ([1]; first compound 0.1265 µM) was 0.591, the relative viability ([1]; first compound 0.4 µM) was 0.452 and the relative viability ([1]; first compound 1.265 µM) was 0.32.

NCI-H2023 was tested, and the relative viability ([3]; first compound 0.01 µM) was 0.934, the relative viability ([3]; first compound 0.03162 µM) was 1.07 and the relative viability ([3]; first compound 0.1 µM) was 0.887. It also gave a relative viability ([3]; first compound 0.3162 µM) of 0.966, a relative viability ([3]; first compound 1 µM) of 1.09 and a relative viability ([2]; first compound 0.01 µM) of 0.711. For the same cell line, the relative viability ([2]; first compound 0.03162 µM) was 0.592, the relative viability ([2]; first compound 0.1 µM) was 0.747 and the relative viability ([2]; first compound 0.3162 µM) was 0.571. For the same cell line, the relative viability ([2]; first compound 1 µM) was 0.711, the relative viability ([4]; first compound 0.04 µM) was 0.912 and the relative viability ([4]; first compound 0.1265 µM) was 0.821. For the same cell line, the relative viability ([4]; first compound 0.4 µM) was 0.62 and the relative viability ([4]; first compound 1.265 µM) was 0.244.

For NCI-H520, the relative viability ([3]; first compound 0.01 µM) was 0.482, the relative viability ([3]; first compound 0.03162 µM) was 0.747 and the relative viability ([3]; first compound 0.1 µM) was 0.432. It also gave a relative viability ([3]; first compound 0.3162 µM) of 0.653, a relative viability ([3]; first compound 1 µM) of 0.693 and a relative viability ([2]; first compound 0.01 µM) of 0.665. It also gave a relative viability ([2]; first compound 0.03162 µM) of 0.792, a relative viability ([2]; first compound 0.1 µM) of 0.697 and a relative viability ([2]; first compound 0.3162 µM) of 0.662. For the same cell line, the relative viability ([2]; first compound 1 µM) was 0.725, the relative viability ([4]; first compound 0.04 µM) was 0.621 and the relative viability ([4]; first compound 0.1265 µM) was 0.446. It also gave a relative viability ([4]; first compound 0.4 µM) of 0.501 and a relative viability ([4]; first compound 1.265 µM) of 0.483.

Cell Line RERF-LC-KJ has a relative viability ([3]; first compound 0.01 µM) of 1.01, a relative viability ([3]; first compound 0.03162 µM) of 1.13 and a relative viability ([3]; first compound 0.1 µM) of 1.09. For the same cell line, the relative viability ([3]; first compound 0.3162 µM) was 1.09, the relative viability ([3]; first compound 1 µM) was 1.03 and the relative viability ([2]; first compound 0.01 µM) was 0.87. For the same cell line, the relative viability ([2]; first compound 0.03162 µM) was 0.762, the relative viability ([2]; first compound 0.1 µM) was 0.878 and the relative viability ([2]; first compound 0.3162 µM) was 0.768. The relative viability ([2]; first compound 1 µM) was 0.879, the relative viability ([4]; first compound 0.04 µM) was 0.919 and the relative viability ([4]; first compound 0.1265 µM) was 0.872. The relative viability ([4]; first compound 0.4 µM) was 0.907, the relative viability ([4]; first compound 1.265 µM) was 0.878 and the relative viability ([1]; first compound 0.04 µM) was 0.976. The relative viability ([1]; first compound 0.1265 µM) was 0.688, the relative viability ([1]; first compound 0.4 µM) was 0.737 and the relative viability ([1]; first compound 1.265 µM) was 0.723.

Work on A-427 yielded a relative viability ([3]; first compound 0.01 µM) of 1.03, a relative viability ([3]; first compound 0.03162 µM) of 0.956 and a relative viability ([3]; first compound 0.1 µM) of 0.973. It also gave a relative viability ([3]; first compound 0.3162 µM) of 0.969, a relative viability ([3]; first compound 1 µM) of 1.05 and a relative viability ([2]; first compound 0.01 µM) of 0.933. For the same cell line, the relative viability ([2]; first compound 0.03162 µM) was 0.892, the relative viability ([2]; first compound 0.1 µM) was 0.983 and the relative viability ([2]; first compound 0.3162 µM) was 0.888. For the same cell line, the relative viability ([2]; first compound 1 µM) was 1.04, the relative viability ([4]; first compound 0.04 µM) was 1 and the relative viability ([4]; first compound 0.1265 µM) was 0.995. The relative viability ([4]; first compound 0.4 µM) was 0.897, the relative viability ([4]; first compound 1.265 µM) was 1.01 and the relative viability ([1]; first compound 0.04 µM) was 0.64. For the same cell line, the relative viability ([1]; first compound 0.1265 µM) was 0.642, the relative viability ([1]; first compound 0.4 µM) was 0.647 and the relative viability ([1]; first compound 1.265 µM) was 0.427.

NCI-H441 gave a relative viability ([3]; first compound 0.01 µM) of 0.542, a relative viability ([3]; first compound 0.03162 µM) of 0.47 and a relative viability ([3]; first compound 0.1 µM) of 0.434. The relative viability ([3]; first compound 0.3162 µM) was 0.644, the relative viability ([3]; first compound 1 µM) was 0.583 and the relative viability ([2]; first compound 0.01 µM) was 0.596. For the same cell line, the relative viability ([2]; first compound 0.03162 µM) was 0.785, the relative viability ([2]; first compound 0.1 µM) was 1.02 and the relative viability ([2]; first compound 0.3162 µM) was 0.846. The relative viability ([2]; first compound 1 µM) was 0.803, the relative viability ([4]; first compound 0.04 µM) was 0.567 and the relative viability ([4]; first compound 0.1265 µM) was 0.285. It also gave a relative viability ([4]; first compound 0.4 µM) of 0.276, a relative viability ([4]; first compound 1.265 µM) of 0.463 and a relative viability ([1]; first compound 0.04 µM) of 1.07. It also gave a relative viability ([1]; first compound 0.1265 µM) of 0.651, a relative viability ([1]; first compound 0.4 µM) of 0.528 and a relative viability ([1]; first compound 1.265 µM) of 0.856.
